This note sets out measurements from patent US20240109917A1 (ACTELION PHARMACEUTICALS LTD, priority 2020, published 2024).

SMILES strings stand for the structures.

Broadly, the IC50 is the concentration that gives 50% inhibition.

The target in the assay is His6-TEV-PDGFRβ (557-1016) (Homo sapiens (Human), UniProt P09619). As to the kind of experiment: PDGFRβ HTRF Assay. Format: biochemical. Conditions: read-out: PDGFR HTRF IC50. The gist of the method: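 Human PDGFRβ (557-1016) pre-incubated with compound for 30 min at RT in pH 7.5 HEPES/MgCl2/EGTA/Brij-35/DTT buffer. Reaction started with ATP and TK-biotin peptide, run 3 h at RT, then quenched with EDTA-containing Eu-cryptate antibody/streptavidin-XL665. HTRF 665/620 nm ratio read after 60 min; percent inhibition relative to DMSO and 10 μM imatinib controls.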
Chain of His6-TEV-PDGFRβ (557-1016) (P09619 557-1016): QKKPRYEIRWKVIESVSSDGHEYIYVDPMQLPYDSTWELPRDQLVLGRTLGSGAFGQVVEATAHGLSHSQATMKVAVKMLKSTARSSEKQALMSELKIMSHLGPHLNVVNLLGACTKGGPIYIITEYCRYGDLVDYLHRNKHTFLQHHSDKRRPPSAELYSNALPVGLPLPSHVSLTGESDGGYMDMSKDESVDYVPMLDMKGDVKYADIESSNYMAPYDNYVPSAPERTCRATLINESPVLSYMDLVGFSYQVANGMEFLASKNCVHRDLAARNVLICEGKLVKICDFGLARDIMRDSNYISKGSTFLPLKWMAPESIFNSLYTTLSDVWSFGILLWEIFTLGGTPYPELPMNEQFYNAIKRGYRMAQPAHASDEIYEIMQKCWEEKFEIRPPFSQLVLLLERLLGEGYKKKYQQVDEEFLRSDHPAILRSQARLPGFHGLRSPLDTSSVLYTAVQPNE
(In general: In TR-FRET formats the signal depends on donor and acceptor labels being close together.)

With `Cc1ncc(C(=O)NCCN2CCCC23CC3)cc1NC(=O)c1cnn2cc(-c3cnn(C)c3)sc12` [Example 2, N-(5-((2-(4-azaspiro[2.4]heptan-4-yl)ethyl)carbamoyl)-2-methylpyridin-3-yl)-2-(1-methyl-1H-pyrazol-4-yl)pyrazolo[5,1-b]thiazole-7-carboxamide], the IC50 came out at 0.7 nM.
With `Cc1ncc(C(=O)NCCN2CCCC23CCC3)cc1NC(=O)c1cnn2cc(-c3cnn(C)c3)sc12` [Example 3, N-(5-((2-(5-azaspiro[3.4]octan-5-yl)ethyl)carbamoyl)-2-methylpyridin-3-yl)-2-(1-methyl-1H-pyrazol-4-yl)pyrazolo[5,1-b]thiazole-7-carboxamide], the IC50 is 0.6 nM.
Take `Cc1ncc(NC(=O)CCN2CCCC2(C)C)cc1NC(=O)c1cnn2cc(-c3cnn(C)c3)sc12` [Example 42, N-(5-(3-(2,2-dimethylpyrrolidin-1-yl)propanamido)-2-methyl-pyridin-3-yl)-2-(1-methyl-1H-pyrazol-4-yl)pyrazolo[5,1-b]thiazole-7-carboxamide]: the half-maximal inhibitory concentration (IC50) is 0.28 nM.
Turning to `Cc1ncc(NC(=O)CCN2CC3CCC2CC3)cc1NC(=O)c1cnn2cc(-c3cnn(C)c3)sc12` [Example 43, N-(5-(3-(2-azabicyclo[2.2.2]octan-2-yl)propanamido)-2-methylpyridin-3-yl)-2-(1-methyl-1H-pyrazol-4-yl)pyrazolo[5,1-b]thiazole-7-carboxamide], the IC50 was found to be 0.23 nM.
Turning to `Cc1ncc(NC(=O)CN2C3CCC2COC3)cc1NC(=O)c1cnn2cc(-c3cnn(C)c3)sc12` [Example 44, N-(5-(2-(3-oxa-8-azabicyclo[3.2.1]octan-8-yl)acetamido)-2-methylpyridin-3-yl)-2-(1-methyl-1H-pyrazol-4-yl)pyrazolo[5,1-b]thiazole-7-carboxamide], the IC50 turned out to be 1.3 nM.
With `Cc1ncc(NC(=O)CN2CC3CC(C2)O3)cc1NC(=O)c1cnn2cc(-c3cnn(C)c3)sc12` [Example 45, N-(5-(2-(6-oxa-3-azabicyclo[3.1.1]heptan-3-yl)acetamido)-2-methylpyridin-3-yl)-2-(1-methyl-1H-pyrazol-4-yl)pyrazolo[5,1-b]thiazole-7-carboxamide] the figure was 1 nM.
With `Cc1ncc(NC(=O)CN2CCC3(CC2)COC3)cc1NC(=O)c1cnn2cc(-c3cnn(C)c3)sc12` [Example 46, N-(5-(2-(2-oxa-7-azaspiro[3.5]nonan-7-yl)acetamido)-2-methylpyridin-3-yl)-2-(1-methyl-1H-pyrazol-4-yl)pyrazolo[5,1-b]thiazole-7-carboxamide] the figure was 3 nM; with `Cc1ncc(NC(=O)CN2CCOCC23CC3)cc1NC(=O)c1cnn2cc(-c3cnn(C)c3)sc12` [Example 47, N-(5-(2-(7-oxa-4-azaspiro[2.5]octan-4-yl)acetamido)-2-methylpyridin-3-yl)-2-(1-methyl-1H-pyrazol-4-yl)pyrazolo[5,1-b]thiazole-7-carboxamide], 0.9 nM; with `Cc1ncc(NC(=O)CN2Cc3cccnc3C2)cc1NC(=O)c1cnn2cc(-c3cnn(C)c3)sc12` [Example 48, N-(5-(2-(5H-pyrrolo[3,4-b]pyridin-6 (7H)-yl)acetamido)-2-methylpyridin-3-yl)-2-(1-methyl-1H-pyrazol-4-yl)pyrazolo[5,1-b]thiazole-7-carboxamide], 1.4 nM.
The result for `Cc1ncc(NC(=O)CN2CCCC(F)(F)C2)cc1NC(=O)c1cnn2cc(-c3cnn(C)c3)sc12` [Example 49, N-(5-(2-(3,3-difluoropiperidin-1-yl)acetamido)-2-methylpyridin-3-yl)-2-(1-methyl-1H-pyrazol-4-yl)pyrazolo[5,1-b]thiazole-7-carboxamide] reads 0.4 nM.
Take `Cc1ncc(NC(=O)CN2CCOC[C@H]2C)cc1NC(=O)c1cnn2cc(-c3cnn(C)c3)sc12` [Example 50, (R)-2-(1-methyl-1H-pyrazol-4-yl)-N-(2-methyl-5-(2-(3-methylmorpholino)acetamido)pyridin-3-yl)pyrazolo[5,1-b]thiazole-7-carboxamide]: the IC50 worked out at 0.6 nM.
The result for `Cc1ncc(NC(=O)CN2[C@H](C)COC[C@H]2C)cc1NC(=O)c1cnn2cc(-c3cnn(C)c3)sc12` [Example 51, N-(5-(2-((3R,5R)-3,5-dimethylmorpholino)acetamido)-2-methylpyridin-3-yl)-2-(1-methyl-1H-pyrazol-4-yl)pyrazolo[5,1-b]thiazole-7-carboxamide] reads 0.4 nM; that for `Cc1ncc(NC(=O)CN2C[C@H](C)O[C@@H](C)C2)cc1NC(=O)c1cnn2cc(-c3cnn(C)c3)sc12` [Example 52, N-(5-(2-((2S,6S)-2,6-dimethylmorpholino)acetamido)-2-methylpyridin-3-yl)-2-(1-methyl-1H-pyrazol-4-yl)pyrazolo[5,1-b]thiazole-7-carboxamide], 0.3 nM; that for `Cc1ncc(NC(=O)CN2C[C@@H](C)O[C@@H](C)C2)cc1NC(=O)c1cnn2cc(-c3cnn(C)c3)sc12` [Example 53, N-(5-(2-((2R,6S)-2,6-dimethylmorpholino)acetamido)-2-methylpyridin-3-yl)-2-(1-methyl-1H-pyrazol-4-yl)pyrazolo[5,1-b]thiazole-7-carboxamide], 0.3 nM.
As to `Cc1ncc(NC(=O)CN2CCO[C@H](C)C2)cc1NC(=O)c1cnn2cc(-c3cnn(C)c3)sc12` [Example 54, (R)-2-(1-methyl-1H-pyrazol-4-yl)-N-(2-methyl-5-(2-(2-methylmorpholino)acetamido)pyridin-3-yl)pyrazolo[5,1-b]thiazole-7-carboxamide], the IC50 was 0.5 nM.
With `Cc1ncc(NC(=O)CN2CCOCC2)cc1NC(=O)c1cnn2cc(-c3cnn(C)c3)sc12` [Example 55, 2-(1-methyl-1H-pyrazol-4-yl)-N-(2-methyl-5-(2-morpholinoacetamido)pyridin-3-yl)pyrazolo[5,1-b]thiazole-7-carboxamide] the figure was 1.5 nM; with `Cc1ncc(NC(=O)CN2CCc3c(cnn3C)C2)cc1NC(=O)c1cnn2cc(-c3cnn(C)c3)sc12` [Example 57, 2-(1-methyl-1H-pyrazol-4-yl)-N-(2-methyl-5-(2-(1-methyl-6,7-dihydro-1H-pyrazolo[4,3-c]pyridin-5 (4H)-yl)acetamido)pyridin-3-yl)pyrazolo[5,1-b]thiazole-7-carboxamide], 1 nM.
The result for `Cc1ncc(NC(=O)CN2CCc3ncsc3C2)cc1NC(=O)c1cnn2cc(-c3cnn(C)c3)sc12` [Example 58, N-(5-(2-(6,7-dihydrothiazolo[5,4-c]pyridin-5 (4H)-yl)acetamido)-2-methylpyridin-3-yl)-2-(1-methyl-1H-pyrazol-4-yl)pyrazolo[5,1-b]thiazole-7-carboxamide] reads 1 nM; that for `Cc1ncc(NC(=O)CN2CCS(=O)(=O)CC2)cc1NC(=O)c1cnn2cc(-c3cnn(C)c3)sc12` [Example 59, N-(5-(2-(1,1-dioxidothiomorpholino)acetamido)-2-methylpyridin-3-yl)-2-(1-methyl-1H-pyrazol-4-yl)pyrazolo[5,1-b]thiazole-7-carboxamide], 2.1 nM; that for `Cc1ncc(NC(=O)CN2CCc3cccnc3C2)cc1NC(=O)c1cnn2cc(-c3cnn(C)c3)sc12` [Example 60, N-(5-(2-(5,6-dihydro-1,7-naphthyridin-7 (8H)-yl)acetamido)-2-methylpyridin-3-yl)-2-(1-methyl-1H-pyrazol-4-yl)pyrazolo[5,1-b]thiazole-7-carboxamide], 1 nM.
As for `Cc1ncc(NC(=O)CN2CCc3scnc3C2)cc1NC(=O)c1cnn2cc(-c3cnn(C)c3)sc12` [Example 61, N-(5-(2-(6,7-dihydrothiazolo[4,5-c]pyridin-5 (4H)-yl)acetamido)-2-methylpyridin-3-yl)-2-(1-methyl-1H-pyrazol-4-yl)pyrazolo[5,1-b]thiazole-7-carboxamide], the IC50 amounted to 0.8 nM.
With `Cc1ncc(NC(=O)CN2CCc3cnccc3C2)cc1NC(=O)c1cnn2cc(-c3cnn(C)c3)sc12` [Example 62, N-(5-(2-(3,4-dihydro-2,6-naphthyridin-2 (1H)-yl)acetamido)-2-methylpyridin-3-yl)-2-(1-methyl-1H-pyrazol-4-yl)pyrazolo[5,1-b]thiazole-7-carboxamide] the figure was 1.4 nM; with `Cc1ncc(NC(=O)CN2CCc3ncccc3C2)cc1NC(=O)c1cnn2cc(-c3cnn(C)c3)sc12` [Example 63, N-(5-(2-(7,8-dihydro-1,6-naphthyridin-6 (5H)-yl)acetamido)-2-methylpyridin-3-yl)-2-(1-methyl-1H-pyrazol-4-yl)pyrazolo[5,1-b]thiazole-7-carboxamide], 2.9 nM.
As to `Cc1ncc(NC(=O)CN2CCO[C@@H](C)C2)cc1NC(=O)c1cnn2cc(-c3cnn(C)c3)sc12` [Example 64, (S)-2-(1-methyl-1H-pyrazol-4-yl)-N-(2-methyl-5-(2-(2-methylmorpholino)acetamido)pyridin-3-yl)pyrazolo[5,1-b]thiazole-7-carboxamide], the IC50 is 0.4 nM.
With `CC[C@@H]1CN(CC(=O)Nc2cnc(C)c(NC(=O)c3cnn4cc(-c5cnn(C)c5)sc34)c2)CCO1` [Example 65, (R)—N-(5-(2-(2-ethylmorpholino)acetamido)-2-methylpyridin-3-yl)-2-(1-methyl-1H-pyrazol-4-yl)pyrazolo[5,1-b]thiazole-7-carboxamide], the IC50 turned out to be 0.7 nM.
With `CC[C@H]1CN(CC(=O)Nc2cnc(C)c(NC(=O)c3cnn4cc(-c5cnn(C)c5)sc34)c2)CCO1` [Example 66, (S)—N-(5-(2-(2-ethylmorpholino)acetamido)-2-methylpyridin-3-yl)-2-(1-methyl-1H-pyrazol-4-yl)pyrazolo[5,1-b]thiazole-7-carboxamide] the figure was 0.3 nM; with `Cc1ncc(NC(=O)CN2CCOC(C)(C)C2)cc1NC(=O)c1cnn2cc(-c3cnn(C)c3)sc12` [Example 67, N-(5-(2-(2,2-dimethylmorpholino)acetamido)-2-methylpyridin-3-yl)-2-(1-methyl-1H-pyrazol-4-yl)pyrazolo[5,1-b]thiazole-7-carboxamide], 1 nM.
